Patent US20060052421A1, “Conjugation agent” (Eastman Kodak Company, priority 2004, published 2006)

Legend:
[1] = Thiol reactivity: substitution reaction of the conjugation agent with MESNA, followed by HPLC; conditions: for krel (MESNA): Table 2, water soluble conjugation agents, determined as for Table 1
Procedure: (§1) The measures of thiol reactivities, thiol chemoselectivities, and aqueous stabilities were determined by the rate constants for the corresponding processes, i.e., relative rate constants for reaction with thiol-containing groups (thiol reactivity), the ratio of thiol to amine rate constants (chemoselectivity for thiol-containing groups), and the rate constant for decomposition of the non-bonded conjugation agent in an aqueous environment (aqueous stability). Equations used in the interpretation of kinetic experiments may be found in J. H. Espenson, Chemical Kinetics and Reaction Mechanisms; McGraw-Hill: New York, 1981.
For the reactivity measurements, […] (MESNA) was used as the thiol-containing target, and lysine (Lys) was used as the amine target. The relevant reaction sequences are shown below, where LG is a leaving group, such as a halide, or alternatively a leaving group of the invention (Sx—Rs), such as an N-ethylmercaptotetrazolyl (EMT) group. All reactions were carried out at standard temperature and pressure. [drawing 20]
(§2) The general structure of the conjugation agents used in Example 1 is shown below in formula V, and details of the structure for each conjugation agent are provided in Table 1. […] The selectivity is the ratio of krel(MESNA)/krel(Lys). The lifetime (τ) of a conjugation agent was measured as the time required for loss of about 66% of the starting amount in the solution of 80% phosphate buffer (pH 7)/20% acetonitrile. […] The progress of the reactions was followed by high performance liquid chromatography (HPLC) for up to 1 week. For lifetimes longer than about one week, the values were estimated based on the observed extent of decomposition, where possible. Conjugates labeled “I” are inventive; those labeled “C” are comparative. [drawing 21]
(§3) The hydrolytic stability data was determined as the lifetime (r) as defined above, but in neutral (pH 7) aqueous phosphate buffer. Formulas for comparative conjugation agents C4-C10, and inventive conjugation agents I2-I6, are shown below. [drawing 22] [drawing 23]

[2] = Aqueous stability: lifetime of the non-bonded conjugation agent (hydrolysis), followed by HPLC; format: physicochemical; conditions: Table 2, neutral (pH 7) aqueous phosphate buffer, time for loss of about 66%
Procedure: as §1, §2
Selectivity values were generated using the lowest detection limit of the equipment as the value of krel(Lys).
as §3

[3] = Transamination of I7 with a lysine amide; conditions: ambient temperature, pH 5.65
Description: Inventive conjugation agent I7 is an example of a conjugation agent designed to sequentially link a substrate containing amine groups, such as a support coated with gelatin, to a target containing thiol groups. [drawing 24] I7 was formed by conversion of the carboxylic acid functionality in I5 into a sulfosuccinate ester via standard procedures shown below in Example 3. This provided a functional group that was reactive towards amine groups. Near quantitative reaction of I7 with a corresponding lysine amide was conducted under transamination conditions (ambient temperature, pH 5.65, bimolecular rate constant for transamination, kbi=3.3 M^−1min^−1). This reaction was carried out under mildly acidic conditions to minimize the known competing hydrolysis of the sulfosuccinate ester. The resultant conjugate was called I8.

## C=CS(=O)(=O)CS(=O)(=O)C=C [C9, bis(vinylsulfonyl)methane, reference compound]
[1]
  krel (MESNA): 0.7
[2]
  Lifetime: 0.75 days

## CCN1C(=O)C=CC1=O [C10, N-ethylmaleimide, reference compound]
[1]
  krel (MESNA): 24.3
[2]
  Lifetime: 1 days

## CCn1nnnc1Sc1cc(C(=O)NCCC(=O)O)c([N+](=O)[O-])cc1[N+](=O)[O-] [I3]
[1]
  krel (MESNA): 0.1

## CCn1nnnc1Sc1c(C(=O)NCCC(=O)O)cc([N+](=O)[O-])cc1[N+](=O)[O-] [I4]
[1]
  krel (MESNA): 0.4
[1]; Table 2 data
  Reactivity towards thiol-containing groups relative to C6: 100 times

## CCn1nnnc1Sc1c([N+](=O)[O-])cc(C(=O)NCCC(=O)O)cc1[N+](=O)[O-] [I5]
[1]
  krel (MESNA): 1.0
[1]; ratio of Table 2 krel values
  krel(thiol, I5)/krel(thiol, 12): about 125

## CCn1nnnc1Sc1cc[n+](Cc2ccccc2)cc1 [I6]
[1]
  krel (MESNA): 1.9
[2]; nd = hydrolysis not detected
  Lifetime: 24 days

## CCn1nnnc1Sc1c([N+](=O)[O-])cc(C(=O)NCCC(=O)ON2C(=O)CC(S(=O)(=O)[O-])C2=O)cc1[N+](=O)[O-].[Na+] (stereo not drawn) [I7]
[3]
  bimolecular rate constant for transamination, kbi: 0.055 M⁻¹ s⁻¹
